The record followed here is ChEMBL document CHEMBL1149518, “High affinity inhibitors of the dopamine transporter (DAT): novel biotinylated ligands for conjugation to quantum dots” (Bioorg Med Chem Lett, 2006).

The assay addresses Sodium-dependent dopamine transporter (Homo sapiens, UniProt Q01959). Nature of the assay: Inhibition of [3H]dopamine uptake at dopamine transporter.

In general, IC50 refers to the midpoint of a concentration-inhibition curve. Low values mean greater potency in that assay, high ones weaker potency in that assay.

Chain of Sodium-dependent dopamine transporter (Q01959 whole entry): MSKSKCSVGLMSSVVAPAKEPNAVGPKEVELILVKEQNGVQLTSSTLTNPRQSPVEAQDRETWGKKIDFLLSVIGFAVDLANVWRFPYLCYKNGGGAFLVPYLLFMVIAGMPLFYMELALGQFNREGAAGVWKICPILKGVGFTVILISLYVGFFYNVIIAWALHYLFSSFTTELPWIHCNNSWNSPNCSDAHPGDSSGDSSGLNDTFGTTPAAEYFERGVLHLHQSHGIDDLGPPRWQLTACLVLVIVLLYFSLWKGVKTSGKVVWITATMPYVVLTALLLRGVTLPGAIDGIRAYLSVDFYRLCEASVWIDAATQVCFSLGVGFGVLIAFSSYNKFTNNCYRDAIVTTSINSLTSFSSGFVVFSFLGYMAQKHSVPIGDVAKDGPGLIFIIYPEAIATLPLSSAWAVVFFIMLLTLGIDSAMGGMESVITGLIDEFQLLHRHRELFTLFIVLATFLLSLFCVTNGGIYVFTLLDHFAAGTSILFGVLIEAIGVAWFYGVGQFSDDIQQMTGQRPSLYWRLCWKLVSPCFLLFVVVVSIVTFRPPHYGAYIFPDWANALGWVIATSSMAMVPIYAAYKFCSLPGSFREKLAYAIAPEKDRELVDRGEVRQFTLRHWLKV

In the case of `O=C(CCCCCCCCCCS)Nc1ccc(CCCN2CCN(CCOC(c3ccccc3)c3ccccc3)CC2)cc1`, the IC50 turned out to be 10 nM.

For `O=C(CCCCCCCCCCS)Nc1ccc(CCCN2CCN(CCOC(c3ccc(F)cc3)c3ccc(F)cc3)CC2)cc1`, the IC50 was found to be 18 nM.
